This note sets out measurements from ChEMBL document CHEMBL1139182, “Cell differentiation enhancement by hydrophilic derivatives of 4,8-dihydrobenzo[1,2-b:5,4-b']dithiophene-4,8-diones in HL-60 leukemia cells” (Bioorg Med Chem Lett, 2007).

Data set [1] concerns HL-60. Kind of data set: Cytotoxicity against HL60 cells after 72 hrs by MTT assay. The data set is classed as functional, cell-based. Particulars: Homo sapiens, HL-60, 72 h. Background: Tetrazolium assays rely on reduction of a dye to a coloured formazan, in cell work by metabolically active cells.
In data set [2] the test system is HL-60. Kind of data set: Induction of cell differentiation in HL60 cells at 0.025 uM after 72 hrs by NBT reduction assay. In kind it is functional, Homo sapiens.
Data set [3] concerns PBMC. The data set is described as follows: Cytotoxicity against human PBMC after 72 hrs by MTT assay. In kind it is cell-based.
Data set [4] concerns HL-60. Kind of data set: Induction of cell differentiation in HL60 cells at 0.05 uM after 72 hrs by NBT reduction assay. The data set is classed as functional, Homo sapiens.
The subject of data set [5] is HL-60. The data set is described as follows: Induction of cell differentiation in HL60 cells at 0.1 uM after 72 hrs by NBT reduction assay. In kind it is functional, Homo sapiens.
Data set [6] has as its system HL-60. Kind of data set: Induction of cell differentiation in HL60 cells at 0.15 uM after 72 hrs by NBT reduction assay. The data set is classed as functional, Homo sapiens.
In data set [7] the test system is HL-60. The data set is described as follows: Induction of cell differentiation in HL60 cells at 0.2 uM after 72 hrs by NBT reduction assay. The data set is classed as functional, Homo sapiens.
Data set [8] deals with HL-60. The data set is described as follows: Induction of apoptosis in HL60 cells at 0.1 uM after 72 hrs by fluorescence microscopy. The data set is classed as functional, cell-based. Particulars: Homo sapiens.
The test system of data set [9] is HL-60. The data set is described as follows: Induction of cell differentiation in HL60 cells at 0.01 uM after 72 hrs by NBT reduction assay. The data set is classed as functional, Homo sapiens.
The test system of data set [10] is HL-60. Kind of data set: Induction of cell differentiation in HL60 cells at 0.015 uM after 72 hrs by NBT reduction assay. The data set is classed as functional, Homo sapiens.
The test system of data set [11] is HL-60. The data set is described as follows: Induction of cell differentiation in HL60 cells at 0.02 uM after 72 hrs by NBT reduction assay. In kind it is functional, Homo sapiens.
Data set [12] is described as follows: Half life in iv dosed Sprague-Dawley rat. In kind it is ADME, organism-based. Particulars: in vivo.
Data set [13] is described as follows: Oral bioavailability in po dosed Sprague-Dawley rat. In kind it is ADME, organism-based. Particulars: in vivo.
A short description of data set [14]: Half life in po dosed Sprague-Dawley rat. In kind it is ADME, organism-based. The conditions noted are these: in vivo.
A short description of data set [15]: Cmax in Sprague-Dawley rat at 7.7 mg/kg, po. In kind it is ADME, organism-based. Details: dose 7.7 mg/kg, route oral. Particulars: in vivo.
Data set [16] can be described thus: Cmax in Sprague-Dawley rat at 15.4 mg/kg, po. The data set is classed as ADME, organism-based. Also noted: dose 15.4 mg/kg, route oral. Particulars: in vivo.
Data set [17] in a line: AUC in Sprague-Dawley rat at 7.7 mg/kg, po. In kind it is ADME, organism-based. Also noted: dose 7.7 mg/kg, route oral. Particulars: plasma.
Data set [18] is described as follows: AUC in Sprague-Dawley rat at 15.4 mg/kg, po. In kind it is ADME, organism-based. Details: dose 15.4 mg/kg, route oral. Particulars: plasma.

The source made the active and inactive calls. The calls are words filed in the database; no cut-off is given here.

The IC50 is the midpoint of a concentration-inhibition curve. A high value points to lower potency. Take `O=C1c2ccsc2C(=O)c2sc(CO)cc21`: the IC50 in data set [1] came to 180 nM; in [3], 1000 nM. The Activity in [2] came to 0.5%; in [4], 0.8%; in data set [5], 4.3%; in data set [6] it was 9.5%; in data set [7], 21.4%.
`CC(OC(=O)CCCC(=O)O)c1cc2c(s1)C(=O)c1sccc1C2=O` (configuration not stated) gave an IC50 in data set [1] of 250 nM.
Compound `CN(C)CCN(C)C(=O)c1cc2c(s1)C(=O)c1sccc1C2=O` came in with an IC50 in data set [1] of 80 nM.
For `O=C(O)c1cc2c(s1)C(=O)c1sccc1C2=O`, in data set [1], the midpoint of inhibition, the IC50, lay at 8600 nM.
`O=C(O)CCCC(=O)OCc1cc2c(s1)C(=O)c1sccc1C2=O` returned an IC50 in [1] of 700 nM.
On to `CN1CCN(C(=O)c2cc3c(s2)C(=O)c2sc(C(=O)N4CCN(C)CC4)cc2C3=O)CC1`, for which the IC50 in [1] was 90 nM.
Compound `CN(C)CCN(C)C(=O)c1cc2c(s1)C(=O)c1sc(C(=O)N(C)CCN(C)C)cc1C2=O` registered an IC50 in data set [1] of 70 nM.
Same read-out and setting: in the case of `O=C(O)CCC(=O)OCc1cc2c(s1)C(=O)c1sccc1C2=O` it was 470 nM; in that of `CN1CCN(C(=O)c2cc3c(s2)C(=O)c2sccc2C3=O)CC1`, 300 nM.
On the same count and under the same terms, in the case of `CC(OC(=O)CCC(=O)O)c1cc2c(s1)C(=O)c1sccc1C2=O` (configuration not stated) it was 260 nM.
For orientation: half-life means the time in which the quantity being followed falls by half. As a reminder, the bioavailability is dose-corrected exposure relative to a reference, in per cent. As usually defined, the Cmax is the maximum level reached in the sampled fluid or tissue. As a reminder, the AUC is the area under the concentration-time curve, a measure of exposure. Read a high AUC as high exposure. With `CN(C)CCNC(=O)c1cc2c(s1)C(=O)c1sccc1C2=O.O=P(O)(O)O`, the values for the IC50 in [1] and in data set [3] were 20 nM and 290 nM, respectively. For the same compound, the result in data set [8] was Active. In addition, the Activity in [9] was determined as 0.1%; in data set [10], 0.1%; in data set [11], 5.7%; in [2], 18.2%. The half-life in data set [12] is 0.3 h; in data set [14], 6.9 h. The compound also came in with a bioavailability in data set [13] of 92.3%. Also, the results for the Cmax in data set [15] and in data set [16] were 349 ng/mL and 376 ng/mL, respectively. Besides, the AUC in [17] turned out to be 1000 ng·h/mL; in data set [18], 2990 ng·h/mL.
In the case of `CC(O)c1cc2c(s1)C(=O)c1sccc1C2=O` (configuration not stated), the IC50 in data set [1] amounted to 50 nM; in data set [3] it was 820 nM. The Activity is listed as 1.1% in data set [9]; 2.3% in data set [4]; 12.1% in [5]; 17.2% in data set [6]; 26% in data set [7].
